This passage reports EC50 results from patent US11180483B2, “Substituted reverse pyrimidine Bmi-1 inhibitors” (PTC Therapeutics, Inc., priority 2012, dated 2021).

Structures are written as SMILES.

The assay relates to Bmi-1. Description: Sandwich ELISA Assay (Bmi-1 ELISA) in HT-1080 cells. Format: cell-based. The procedure, abridged:
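HT-1080 cells exposed to compound in 0.5% final DMSO for 40-48 h at 37 °C, then lysed. Bmi-1 was quantified by sandwich ELISA: mouse monoclonal capture, rabbit anti-Bmi-1 detection, HRP anti-rabbit and TMB. Read at OD450 (OD570 reference) against a recombinant GST-Bmi-1 standard curve (0-8000 pg/mL).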
On the technique in general: In an ELISA, binding on a coated surface is turned into a signal by an enzyme label.
In turn, `Cc1nc2ncc(F)cc2n1-c1nc(N)cc(Nc2ccc(C(F)(F)F)cc2)n1` [Cpd 94, 2-(6-fluoro-2-methyl-1H-imidazo[4,5-b]pyridin-1-yl)-N-[4-(trifluoromethyl)phenyl]pyrimidine-4,6-diamine] yielded a 50% effective concentration (EC50) of 10 to 100 nM.

`Cc1nc2ccccc2n1-c1nc(N)c(F)c(Nc2ccc(C(F)(F)F)cc2)n1` [Cpd 95, 5-fluoro-2-(2-methyl-1H-benzimidazol-1-yl)-N-[4-(trifluoromethyl)phenyl]pyrimidine-4,6-diamine] displayed a concentration giving a half-maximal response (EC50) of 10 to 100 nM.

As for `Cc1nc2ccc(Cl)cc2n1-c1nc(N)cc(Nc2ccc(C(F)(F)F)c(F)c2)n1` [Cpd 96, 2-(6-chloro-2-methyl-1H-benzimidazol-1-yl)-N-[3-fluoro-4-(trifluoromethyl)phenyl]pyrimidine-4,6-diamine], the concentration giving a half-maximal response (EC50) was in the range of 100 to 3000 nM.

As to `Cc1nc2ccc(Cl)cc2n1-c1nc(N)cc(Nc2ccc(OC(F)F)cc2)n1` [Cpd 97, 2-(6-chloro-2-methyl-1H-benzimidazol-1-yl)-N-[4-(difluoromethoxy)phenyl]pyrimidine-4,6-diamine], the EC50 was in the range of 10 to 100 nM.

Turning to `Cc1nc2cc(Cl)ccc2n1-c1nc(N)cc(Nc2ccc(C(F)(F)F)c(F)c2)n1` [Cpd 98, 2-(5-chloro-2-methyl-1H-benzimidazol-1-yl)-N-[3-fluoro-4-(trifluoromethyl)phenyl]pyrimidine-4,6-diamine], the half-maximal effective concentration (EC50) lay in the range of 100 to 3000 nM.

The compound `Cc1nc2cc(Cl)ccc2n1-c1nc(N)cc(Nc2ccc(OC(F)F)cc2)n1` [Cpd 99, 2-(5-chloro-2-methyl-1H-benzimidazol-1-yl)-N-[4-(difluoromethoxy)phenyl]pyrimidine-4,6-diamine] returned an EC50 of 100 to 3000 nM.

Turning to `Cc1nc2cc(F)c(F)cc2n1-c1nc(N)cc(Nc2ccc(OC(F)F)c(F)c2)n1` [Cpd 101, N-[4-(difluoromethoxy)-3-fluorophenyl]-2-(5,6-difluoro-2-methyl-1H-benzimidazol-1-yl)pyrimidine-4,6-diamine], the half-maximal effective concentration (EC50) fell in the range of 10 to 100 nM.

With `Cc1nc2cc(F)c(F)cc2n1-c1nc(N)cc(Nc2ccc(OC(F)F)cc2)n1` [Cpd 102, N-[4-(difluoromethoxy)phenyl]-2-(5,6-difluoro-2-methyl-1H-benzimidazol-1-yl)pyrimidine-4,6-diamine], the EC50 lay in the range of 10 to 100 nM.

`Nc1cc(Nc2ccc(OC(F)F)cc2)nc(-n2c(C3CC3)nc3ncc(F)cc32)n1` [Cpd 103, 2-(2-cyclopropyl-6-fluoro-1H-imidazo[4,5-b]pyridin-1-yl)-N-[4-(difluoromethoxy)phenyl]pyrimidine-4,6-diamine] had an EC50 of 10 to 100 nM.

Regarding `Cc1nc2ncc(Cl)cc2n1-c1nc(N)cc(Nc2ccc(C(F)(F)F)cc2)n1` [Cpd 104, 2-(6-chloro-2-methyl-1H-imidazo[4,5-b]pyridin-1-yl)-N-[4-(trifluoromethyl)phenyl]pyrimidine-4,6-diamine], the EC50 was in the range of 10 to 100 nM.

Compound `CCc1nc2ncc(Cl)cc2n1-c1nc(N)cc(Nc2ccc(C(F)(F)F)cc2)n1` [Cpd 105, 2-(6-chloro-2-ethyl-1H-imidazo[4,5-b]pyridin-1-yl)-N-[4-(trifluoromethyl)phenyl]pyrimidine-4,6-diamine] displayed an EC50 of 10 to 100 nM.

Compound `Cc1nc2ccccc2n1-c1nc(N)c(F)c(Nc2ccc(OC(F)F)cc2)n1` [Cpd 106, N-[4-(difluoromethoxy)phenyl]-5-fluoro-2-(2-methyl-1H-benzimidazol-1-yl)pyrimidine-4,6-diamine] displayed an EC50 of 10 to 100 nM.

`CCc1nc2ccccc2n1-c1nc(N)c(F)c(Nc2ccc(C(F)(F)F)cc2)n1` [Cpd 107, 2-(2-ethyl-1H-benzimidazol-1-yl)-5-fluoro-N-[4-(trifluoromethyl)phenyl]pyrimidine-4,6-diamine]: the EC50 fell in the range of 10 to 100 nM.

With `Cc1nc2cc(F)ccc2n1-c1nc(N)c(F)c(Nc2ccc(C(F)(F)F)cc2)n1` [Cpd 108, 5-fluoro-2-(5-fluoro-2-methyl-1H-benzimidazol-1-yl)-N-[4-(trifluoromethyl)phenyl]pyrimidine-4,6-diamine], the EC50 lay within 100 to 3000 nM.

With `Cc1nc2ccc(F)cc2n1-c1nc(N)c(F)c(Nc2ccc(OC(F)F)cc2)n1` [Cpd 110, N-[4-(difluoromethoxy)phenyl]-5-fluoro-2-(6-fluoro-2-methyl-1H-benzimidazol-1-yl)pyrimidine-4,6-diamine], the EC50 was in the range of 10 to 100 nM.

For `Cc1nc2ccc(F)cc2n1-c1nc(N)c(F)c(Nc2ccc(OC(F)F)c(F)c2)n1` [Cpd 111, N-[4-(difluoromethoxy)-3-fluorophenyl]-5-fluoro-2-(6-fluoro-2-methyl-1H-benzimidazol-1-yl)pyrimidine-4,6-diamine], the half-maximal effective concentration (EC50) was 10 to 100 nM.

As for `Cc1nc2cc(F)ccc2n1-c1nc(N)c(F)c(Nc2ccc(OC(F)F)c(F)c2)n1` [Cpd 112, N-[4-(difluoromethoxy)-3-fluorophenyl]-5-fluoro-2-(5-fluoro-2-methyl-1H-benzimidazol-1-yl)pyrimidine-4,6-diamine], the concentration for a half-maximal effect (EC50) was 10 to 100 nM.

With `Cc1nc2cc(F)ccc2n1-c1nc(N)c(F)c(Nc2ccc(OC(F)F)cc2)n1` [Cpd 113, N-[4-(difluoromethoxy)phenyl]-5-fluoro-2-(5-fluoro-2-methyl-1H-benzimidazol-1-yl)pyrimidine-4,6-diamine], the 50% effective concentration (EC50) was 10 to 100 nM.

`Cc1nc2ncc(Cl)cc2n1-c1nc(N)c(F)c(Nc2ccc(C(F)(F)F)cc2)n1` [Cpd 114, 2-(6-chloro-2-methyl-1H-imidazo[4,5-b]pyridin-1-yl)-5-fluoro-N-[4-(trifluoromethyl)phenyl]pyrimidine-4,6-diamine] came in with an EC50 of 10 to 100 nM.

`Cc1nc2ncc(Cl)cc2n1-c1nc(N)c(F)c(Nc2ccc(OC(F)F)cc2)n1` [Cpd 115, 2-(6-chloro-2-methyl-1H-imidazo[4,5-b]pyridin-1-yl)-N-[4-(difluoromethoxy)phenyl]-5-fluoropyrimidine-4,6-diamine] yielded an EC50 of 10 to 100 nM.

For `Cc1nc2ncc(Cl)cc2n1-c1nc(N)c(F)c(Nc2ccc(OC(F)F)c(F)c2)n1` [Cpd 116, 2-(6-chloro-2-methyl-1H-imidazo[4,5-b]pyridin-1-yl)-N-[4-(difluoromethoxy)-3-fluorophenyl]-5-fluoropyrimidine-4,6-diamine], the half-maximal effective concentration (EC50) fell in the range of 10 to 100 nM.

`Nc1nc(-n2c(C3CC3)nc3ncc(F)cc32)nc(Nc2ccc(C(F)(F)F)cc2)c1F` [Cpd 117, 2-(2-cyclopropyl-6-fluoro-1H-imidazo[4,5-b]pyridin-1-yl)-5-fluoro-N-[4-(trifluoromethyl)phenyl]pyrimidine-4,6-diamine] gave a concentration giving a half-maximal response (EC50) of 10 to 100 nM.

Regarding `FC(F)(F)c1ccc(Nc2ccnc(-c3cnc4ccccn34)n2)cc1` [Cpd 118, 2-(imidazo[1,2-a]pyridin-3-yl)-N-[4-(trifluoromethyl)phenyl]pyrimidin-4-amine], the EC50 fell in the range of 100 to 3000 nM.

As to `Cc1nc2ccccc2n1-c1nc(N)c(F)c(Nc2ccc(OC(F)F)c(F)c2)n1` [Cpd 119, N-[4-(difluoromethoxy)-3-fluorophenyl]-5-fluoro-2-(2-methyl-1H-benzimidazol-1-yl)pyrimidine-4,6-diamine], the EC50 lay within 10 to 100 nM.

For the compound `Nc1nc(-n2c(C3CC3)nc3ccccc32)nc(Nc2ccc(C(F)(F)F)cc2)c1F` [Cpd 120, 2-(2-cyclopropyl-1H-benzimidazol-1-yl)-5-fluoro-N-[4-(trifluoromethyl)phenyl]pyrimidine-4,6-diamine], the EC50 fell in the range of 10 to 100 nM.

In turn, `Nc1nc(-n2c(C3CC3)nc3ccccc32)nc(Nc2ccc(OC(F)F)cc2)c1F` [Cpd 121, 2-(2-cyclopropyl-1H-benzimidazol-1-yl)-N-[4-(difluoromethoxy)phenyl]-5-fluoropyrimidine-4,6-diamine] had a concentration giving a half-maximal response (EC50) of 1 to 10 nM.

For `Nc1nc(-n2c(C3CC3)nc3ccccc32)nc(Nc2ccc(OC(F)F)c(F)c2)c1F` [Cpd 122, 2-(2-cyclopropyl-1H-benzimidazol-1-yl)-N-[4-(difluoromethoxy)-3-fluorophenyl]-5-fluoropyrimidine-4,6-diamine], the EC50 is 10 to 100 nM.

With `CCc1nc2ccccc2n1-c1nc(N)c(F)c(Nc2ccc(OC(F)F)cc2)n1` [Cpd 123, N-[4-(difluoromethoxy)phenyl]-2-(2-ethyl-1H-benzimidazol-1-yl)-5-fluoropyrimidine-4,6-diamine], the 50% effective concentration (EC50) lay within 1 to 10 nM.

The compound `CCc1nc2ccccc2n1-c1nc(N)c(F)c(Nc2ccc(OC(F)F)c(F)c2)n1` [Cpd 124, N-[4-(difluoromethoxy)-3-fluorophenyl]-2-(2-ethyl-1H-benzimidazol-1-yl)-5-fluoropyrimidine-4,6-diamine] showed an EC50 of 10 to 100 nM.

For the compound `Cc1nc2cc(F)c(F)cc2n1-c1nc(N)c(F)c(Nc2ccc(C(F)(F)F)cc2)n1` [Cpd 125, 2-(5,6-difluoro-2-methyl-1H-benzimidazol-1-yl)-5-fluoro-N-[4-(trifluoromethyl)phenyl]pyrimidine-4,6-diamine], the concentration giving a half-maximal response (EC50) was 100 to 3000 nM.

`Cc1nc2cc(F)c(F)cc2n1-c1nc(N)c(F)c(Nc2ccc(OC(F)F)c(F)c2)n1` [Cpd 126, N-[4-(difluoromethoxy)-3-fluorophenyl]-2-(5,6-difluoro-2-methyl-1H-benzimidazol-1-yl)-5-fluoropyrimidine-4,6-diamine] came in with a concentration for a half-maximal effect (EC50) of 10 to 100 nM.

`Cc1nc2c(F)cc(F)cc2n1-c1nc(N)c(F)c(Nc2ccc(C(F)(F)F)cc2)n1` [Cpd 127, 2-(4,6-difluoro-2-methyl-1H-benzimidazol-1-yl)-5-fluoro-N-[4-(trifluoromethyl)phenyl]pyrimidine-4,6-diamine]: the concentration for a half-maximal effect (EC50) was 10 to 100 nM.

`Cc1nc2c(F)cc(F)cc2n1-c1nc(N)c(F)c(Nc2ccc(OC(F)F)c(F)c2)n1` [Cpd 128, N-[4-(difluoromethoxy)-3-fluorophenyl]-2-(4,6-difluoro-2-methyl-1H-benzimidazol-1-yl)-5-fluoropyrimidine-4,6-diamine] yielded a half-maximal effective concentration (EC50) of 10 to 100 nM.

As for `CCc1nc2c(F)cc(F)cc2n1-c1nc(N)c(F)c(Nc2ccc(C(F)(F)F)cc2)n1` [Cpd 129, 2-(2-ethyl-4,6-difluoro-1H-benzimidazol-1-yl)-5-fluoro-N-[4-(trifluoromethyl)phenyl]pyrimidine-4,6-diamine], the EC50 was 10 to 100 nM.

What is called EC50 is the midpoint of the concentration-response curve. Low readings indicate greater potency, high ones weaker potency.
